Molecules are shown by their SMILES.

The target in the test is T1, IDO1 (Mus musculus, UniProt P28776).
T1 construct: LPS-injected mice have been used as models to study IDO1 expression and activity; from tissue; host or cells: whole animal: LPS-injected C57BL/6 mice, with IDO1 induced in a variety of tissues
T1 sequence (P28776 whole entry): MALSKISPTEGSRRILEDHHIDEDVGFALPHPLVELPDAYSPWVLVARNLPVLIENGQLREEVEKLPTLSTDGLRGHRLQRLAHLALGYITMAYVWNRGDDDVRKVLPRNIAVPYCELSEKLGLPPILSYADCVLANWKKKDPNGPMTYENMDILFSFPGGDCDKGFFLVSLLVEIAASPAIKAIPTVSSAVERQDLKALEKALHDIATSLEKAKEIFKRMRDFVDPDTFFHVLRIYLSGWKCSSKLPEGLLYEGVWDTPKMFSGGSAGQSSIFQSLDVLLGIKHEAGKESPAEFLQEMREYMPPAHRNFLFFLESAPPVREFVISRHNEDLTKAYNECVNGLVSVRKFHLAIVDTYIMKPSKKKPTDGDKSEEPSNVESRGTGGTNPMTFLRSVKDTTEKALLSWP
As to the kind of experiment: Reduction of LPS induced plasma kynurenine levels in C57BL/6 mice. The following applies: LPS-injected (6 mg/kg i.p.) C57BL/6 mice; test compound given orally 20 h after LPS; plasma KYN by LC/MS/MS at 2 hr post dosing. It is filed as in vivo. An excerpt:
Inflammatory mediators such as Lipopolysaccharides (LPS) and Interferon-gamma (IFNg) are well-established inducers of IDO1 expression. Intraperitoneal (i.p.) administration of bacterial lipopolysaccharide (LPS) induces peak IDO1 activity in a variety of tissues within one day after LPS administration resulting in the production and release of kynurenine into the bloodstream (Takikawa, O., et al. (1986) J. Biol. Chem. 261:3648-53; Yoshida, H., et al. (1998) Cell 94:739-750). LPS-injected mice have been used as models to study IDO1 expression and activity. Three—eight fed C57 BL/6 mice (age 7-8 weeks, weight: about 20-22 g) were injected intrapritoneally with bacterial lipopolysaccharide (LPS; 26:B6 Sigma) at a concentration of 6 mg/kg. Animals were then housed in normal condition for 20 hours at which time the test compounds were administered orally in formulation containing 30% polyethylene glycol 400 (PEG 400) and 20% propylene glycol (PG) in normal saline (Dosing volume 10 mL/kg). Blood was drawn through retro-orbital bleeds into a tube containing 100 mM EDTA for plasma collection at the following times: just prior to LPS treatment, just prior to test compound dosing (0 hr) and then at 2 hr, 4 hr, 6 hr, 8 hr, 24 hr and 48 hr post-test compound dosing. Plasma KYN and drug levels were determined by LC/MS/MS using an API4000 mass spectrometer (Applied Biosystems) coupled to a Shimadzu Prominence LC system fitted with a C18 column.
The compounds of the invention decrease kynurenine levels. The compounds of the invention trigger a decrease of kynurenine levels at 2 hrs of at least 5%.
Take `N#C/C(=N\c1ccc(F)c(C(F)(F)F)c1)c1ccncc1O` [Compound 05, N-(4-Fluoro-3-(trifluoromethyl)phenyl)-3-hydroxyisonicotinimidoyl nitrile]: the “percentage of decrease of kynurenine level at two hours” value (“percentage of decrease … at two hours” for short) came out at 64%.

Turning to `Cc1cc(-c2nccc(/C(C#N)=N/c3ccc(F)cc3)c2O)ccn1` [Compound 11, N-(4-Fluorophenyl)-3-hydroxy-2′-methyl-[2,4′-bipyridine]-4-carbimidoyl nitrile], the “percentage of decrease … at two hours” value was found to be 82%. Next, `N#C/C(=N\c1cccc(Cl)c1)c1ccncc1O` [Compound 33, N-(3-Chlorophenyl)-3-hydroxyisonicotinimidoyl nitrile]: 80%.

As for `N#C/C(=N\c1ccc(F)c(Cl)c1)c1ccnc(-c2ccccc2)c1O` [Compound 13, N-(3-Chloro-4-fluorophenyl)-3-hydroxy-2-phenylisonicotinimidoyl nitrile], the “percentage of decrease … at two hours” value is recorded as 46%. `N#C/C(=N\c1ccc(F)c(Cl)c1)c1ccnc(-c2ccc3c(c2)OCO3)c1O` [Compound 17, 2-(Benzo[d][1,3]dioxol-5-yl)-N-(3-chloro-4-fluorophenyl)-3-hydroxyisonicotinimidoyl nitrile]: the “percentage of decrease … at two hours” value is 10%.

For `N#C/C(=N\c1ccc(F)c(Cl)c1)c1cc(F)ncc1O` [Compound 06, N-(3-Chloro-4-fluorophenyl)-2-fluoro-5-hydroxyIsonicotinimidoyl nitrile], the “percentage of decrease … at two hours” value was 73%. Next, `Cc1cc(-c2nccc(/C(C#N)=N/c3ccc(F)c(F)c3)c2O)ccn1` [Compound 10, N-(3,4-Difluorophenyl)-3-hydroxy-2′-methyl-[2,4′-bipyridine]-4-carbimidoyl nitrile]: 79%; `N#C/C(=N\c1ccc(F)c(Cl)c1)c1ccnc(Nc2ccccc2)c1O` [Compound 12, N-(3-Chloro-4-fluorophenyl)-3-hydroxy-2-(phenylamino)isonicotinimidoyl nitrile]: 15%. Take `N#C/C(=N\c1cccc(C(F)(F)F)c1)c1ccnc(-c2ccccc2)c1O` [Compound 42, 3-Hydroxy-2-phenyl-N-(3-(trifluoromethyl)phenyl)isonicotinimidoyl nitrile]: the “percentage of decrease … at two hours” value is listed as 32%. With `N#C/C(=N\c1ccc(F)c(Cl)c1)c1ccnc(Br)c1O` [Compound 19, 2-Bromo-N-(3-chloro-4-fluorophenyl)-3-hydroxyIsonicotinimidoyl nitrile] the figure was 38%; with `Cc1cc(-c2nccc(/C(C#N)=N/c3cccc(F)c3)c2O)ccn1` [Compound 29, N-(3-Fluorophenyl)-3-hydroxy-2′-methyl-[2,4′-bipyridine]-4-carbimidoyl nitrile], 75%.

On to `CNC(=O)c1cc(-c2nccc(/C(C#N)=N/c3ccc(F)c(F)c3)c2O)ccn1` [Compound 37, N-(3,4-Difluorophenyl)-3-hydroxy-2′-(methylcarbamoyl)-[2,4′-bipyridine]-4-carbimidoyl nitrile], for which the “percentage of decrease … at two hours” value was determined as 68%. With `COc1cc(/C(C#N)=N/c2ccc(F)c(Cl)c2)c(O)cn1` [Compound 14, N-(3-Chloro-4-fluorophenyl)-5-hydroxy-2-methoxyisonicotinimidoyl nitrile], the “percentage of decrease … at two hours” value was determined as 18%. Next, `N#C/C(=N\c1cccc(Cl)c1)c1ccnc(-c2ccncc2)c1O` [Compound 22, N-(3-Chlorophenyl)-3-hydroxy-[2,4′-bipyridine]-4-carbimidoyl nitrile]: 87%; `N#C/C(=N\c1cccc(F)c1)c1ccncc1O` [Compound 35, N-(3-Fluorophenyl)-3-hydroxyisonIcotinimidoyl nitrile]: 74%. Regarding `Cc1cc(-c2nccc(/C(C#N)=N/c3cccc(Cl)c3)c2O)ccn1` [Compound 23, N-(3-Chlorophenyl)-3-hydroxy-2′-methyl-[2,4′-bipyridine]-4-carbimidoyl nitrile], the “percentage of decrease … at two hours” value is on record as 79%.

For the compound `N#C/C(=N\c1cccc(F)c1)c1ccnc(-c2ccncc2)c1O` [Compound 41, N-(3-Fluorophenyl)-3-hydroxy-[2,4′-bipyridine]-4-carbimidoyl nitrile], the “percentage of decrease … at two hours” value amounted to 81%.

`N#C/C(=N\c1ccccc1Cl)c1ccnc(-c2ccncc2)c1O` [Compound 20]: the “percentage of decrease … at two hours” value worked out at 46%. Regarding `N#C/C(=N\c1ccc(F)c(Cl)c1)c1ccncc1O` [Compound 01, N-(3-Chloro-4-fluorophenyl)-3-hydroxyisonicotinimidoyl nitrile], the “percentage of decrease … at two hours” value came to 73%.

Take `CNC(=O)c1cc(-c2nccc(/C(C#N)=N/c3cccc(Cl)c3)c2O)ccn1` [Compound 30, N-(3-Chlorophenyl)-3-hydroxy-2′-(methylcarbamoyl)-[2,4′-bipyridine]-4-carbimidoyl nitrile]: the “percentage of decrease … at two hours” value amounted to 64%. Next, `Cc1cc(-c2nccc(/C(C#N)=N/c3ccc(F)c(Cl)c3)c2O)cc(C)n1` [Compound 16]: 36%.

Turning to `N#C/C(=N\c1ccc(F)c(F)c1)c1ccnc(-c2ccncc2)c1O` [Compound 08, N-(3,4-Difluorophenyl)-3-hydroxy-[2,4′-bipyridine]-4-carbimidoyl nitrile], the “percentage of decrease … at two hours” value is 83%. Next, `N#C/C(=N\c1ccc(F)c(Cl)c1)c1ccnc(-c2ccncc2)c1O` [Compound 04, N-(3-Chloro-4-fluorophenyl)-3-hydroxy-[2,4′-bipyridine]-4-carbimidoyl nitrile]: 77%; `N#C/C(=N\c1ccc(F)c(C(F)(F)F)c1)c1ccnc(C#N)c1O` [Compound 03, 2-Cyano-N-(4-fluoro-3-(trifluoromethyl)phenyl)-3-hydroxyisonicotinimidoyl nitrile]: 25%; `N#C/C(=N\c1ccc(F)c(C(F)(F)F)c1)c1ccnc(-c2ccncc2)c1O` [Compound 40, N-(4-Fluoro-3-(trifluoromethyl)phenyl)-3-hydroxy-[2,4′-bipyridine]-4-carbimidoyl nitrile]: 77%. In the case of `CNC(=O)c1cc(-c2nccc(/C(C#N)=N/c3ccc(F)c(C(F)(F)F)c3)c2O)ccn1` [Compound 31, N-(4-Fluoro-3-(trifluoromethyl)phenyl)-3-hydroxy-2′-(methylcarbamoyl)-[2,4′-bipyridine]-4-carbimidoyl nitrile], the “percentage of decrease … at two hours” value was determined as 43%. With `Cc1cc(-c2nccc(/C(C#N)=N/c3cccc(C(F)(F)F)c3)c2O)ccn1` [Compound 38, 3-Hydroxy-2′-methyl-N-(3-(trifluoromethyl)phenyl)-[2,4′-bipyridine]-4-carbimidoyl nitrile] the figure was 69%.

For the compound `N#C/C(=N\c1ccc(F)cc1)c1ccnc(-c2ccnc(F)c2)c1O` [Compound 43, 2′-Fluoro-N-(4-fluorophenyl)-3-hydroxy-[2,4′-bipyridine]-4-carbimidoyl nitrile], the “percentage of decrease … at two hours” value is on record as 69%.

(Values after US20170273961A1, “NOVEL IMINONITRILE DERIVATIVES” (CURADEV PHARMA, PVT. LTD., priority 2014, published 2017).)
